Test results: patent US10253002B2, “Compounds and methods of treating infections” (Neoculi Pty Ltd., priority 2013, dated 2019)
Converted amounts (≈) assume the structure as drawn. “And” between values parts separate entries of the source, which are not always exact repeats. Equal values may be shown once. Read-outs that look alike come from different tables or passages of the source.

What was measured:
Test in all cases: Broth microdilution MIC, Example 7 (NCL812 and analogues)
VRE = assay type: cell-based, Enterococcus spp.; conditions: for activity against VRE among analogues: MIC testing, two VRE strains; for MIC: Enterococcus, VRE, 24 h
Method in brief: (§1)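 Duplicates per isolate, repeated a third time if >one two-fold dilution apart. MIC50, MIC20 and range calculated per bacterial group.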

Escherichia coli = assay type: cell-based; conditions: 24 hours
MRSA = assay type: cell-based, Staphylococcus aureus; conditions: for MIC: Staphylococcus aureus, MRSA, 24 h
Method in brief: as §1

Pseudomonas aeruginosa = assay type: cell-based
[1] = isolate VRE 1, 24 hours, 1st and 2nd replicate rows
[2] = isolate VRE 2, 24 hours, 1st and 2nd replicate rows
[3] = isolate MRSA 1, 24 hours, 1st and 2nd replicate rows
[4] = isolate MRSA 2, 24 hours, 1st and 2nd replicate rows
[5] = VRE 1, 24 hours, duplicate lines per compound
[6] = VRE 2, 24 hours, duplicate lines per compound
[7] = E. coli, duplicate lines per compound
[8] = MRSA 1, 24 hours, duplicate lines per compound
[9] = MRSA 2, 24 hours, duplicate lines per compound
[10] = P. aeruginosa, duplicate lines per compound

Compound | MIC (μg/ml) at 24 hours, VRE 1 (VRE; [1]) | MIC (μg/ml) at 24 hours, VRE 2 (VRE; [2]) | MIC (μg/ml) at 24 hours, E. coli (Escherichia coli; 1st and 2nd replicate rows) | MIC (μg/ml) at 24 hours, MRSA 1 (MRSA; [3]) | MIC (μg/ml) at 24 hours, MRSA 2 (MRSA; [4]) | MIC (μg/ml) at 24 hours, P. aeruginosa (Pseudomonas aeruginosa; 1st and 2nd replicate rows) | MIC (μg/ml) at 24 hours, VRE 1 (VRE; VRE 1, 24 hours) | MIC (μg/ml) at 24 hours, MRSA 2 (MRSA; MRSA 2, 24 hours) | MIC (μg/ml) at 24 hours, P. aeruginosa (Pseudomonas aeruginosa; P. aeruginosa) | further results
O=C(N/N=C/c1ccc(Cl)cc1)N/N=C/c1ccc(Cl)cc1 [NCL001] | >128 µg/mL | >128 µg/mL | >128 µg/mL and >126 µg/mL | >128 µg/mL | >128 µg/mL | >128 µg/mL | – | – | – | –
COc1ccc(/C=N/NC(=N)N/N=C/c2ccc(OC)cc2)cc1.Cl [NCL027] | >128 µg/mL | >128 µg/mL | >128 µg/mL | >128 µg/mL | >128 µg/mL | >128 µg/mL | – | – | – | –
Cl.N#Cc1cccc(C=NNC(=N)NN=Cc2cccc(C#N)c2)c1 [NCL026] | >128 µg/mL | >128 µg/mL | >128 µg/mL | >128 µg/mL | >128 µg/mL | >128 µg/mL | – | – | – | –
Cl.N#Cc1ccccc1/C=N/NC(=N)N [NCL032] | >128 µg/mL | >128 µg/mL | >128 µg/mL | >128 µg/mL | >128 µg/mL | >128 µg/mL | – | – | – | –
Cl.N#Cc1ccc(C=NNC(=N)NN=Cc2ccc(C#N)cc2)cc1 [NCL024] | >128 µg/mL | >128 µg/mL | >128 µg/mL | >128 µg/mL | >128 µg/mL | >128 µg/mL | – | – | – | –
Cl.N=C(NN=Cc1ccc(SC(F)(F)F)cc1)NN=Cc1ccc(SC(F)(F)F)cc1 [NCL 166] | – | – | – | – | – | – | – | – | – | MIC (μg/ml) at 24 hours, VRE 1 (VRE; [5]): 8 µg/mL; MIC (μg/ml) at 24 hours, VRE 2 (VRE; [6]): 128 µg/mL; MIC (μg/ml) at 24 hours, E. coli (Escherichia coli; [7]): >128 µg/mL; MIC (μg/ml) at 24 hours, MRSA 1 (MRSA; [8]): 32 µg/mL; MIC (μg/ml) at 24 hours, MRSA 2 (MRSA; [9]): 64 µg/mL; MIC (μg/ml) at 24 hours, P. aeruginosa (Pseudomonas aeruginosa; [10]): >128 µg/mL
CC(=NNC(=N)NN=C(C)c1ccc(Cl)cc1O)c1ccc(Cl)cc1O.Cl [NCL 173] | – | – | – | – | – | – | 4 µg/mL | 16 µg/mL | >128 µg/mL | MIC (μg/ml) at 24 hours, VRE 2 (VRE; VRE 2, 24 hours): 32 µg/mL; MIC (μg/ml) at 24 hours, E. coli (Escherichia coli; E. coli): >128 µg/mL; MIC (μg/ml) at 24 hours, MRSA 1 (MRSA; MRSA 1, 24 hours): 16 µg/mL
NC(=O)N/N=C/c1ccc(Cl)cc1 [NCL014] | >128 µg/mL | >128 µg/mL | >128 µg/mL | >128 µg/mL | >128 µg/mL | >128 µg/mL | – | – | – | –
N#Cc1ccc(/C=N/NC(=O)N/N=C/c2ccc(C#N)cc2)cc1 [NCL007] | >128 µg/mL | >128 µg/mL | >128 µg/mL | >128 µg/mL | >128 µg/mL | >128 µg/mL | – | – | – | –
O=C(NN=Cc1ccc(C(F)(F)F)cc1)NN=Cc1ccc(C(F)(F)F)cc1 [NCL012] | >128 µg/mL | >128 µg/mL | >128 µg/mL | >128 µg/mL | >128 µg/mL | >128 µg/mL | – | – | – | –
CCC(=NNC(=N)NN=C(CC)c1ccc(Cl)cc1O)c1ccc(Cl)cc1O.Cl [NCL 158] | – | – | – | – | – | – | – | – | – | MIC (μg/ml) at 24 hours, VRE 1 (VRE; [5]): 4 µg/mL; MIC (μg/ml) at 24 hours, VRE 2 (VRE; [6]): 4 µg/mL; MIC (μg/ml) at 24 hours, E. coli (Escherichia coli; [7]): >128 µg/mL; MIC (μg/ml) at 24 hours, MRSA 1 (MRSA; [8]): 4 µg/mL; MIC (μg/ml) at 24 hours, MRSA 2 (MRSA; [9]): 4 µg/mL; MIC (μg/ml) at 24 hours, P. aeruginosa (Pseudomonas aeruginosa; [10]): >128 µg/mL
Cl.N=C(NN=C(c1ccc(Cl)cc1O)C1CCCC1)NN=C(c1ccc(Cl)cc1O)C1CCCC1 [NCL 159] | – | – | – | – | – | – | – | – | – | MIC (μg/ml) at 24 hours, VRE 1 (VRE; [5]): 16 µg/mL; MIC (μg/ml) at 24 hours, VRE 2 (VRE; [6]): 128 µg/mL; MIC (μg/ml) at 24 hours, E. coli (Escherichia coli; [7]): >128 µg/mL; MIC (μg/ml) at 24 hours, MRSA 1 (MRSA; [8]): 64 µg/mL; MIC (μg/ml) at 24 hours, MRSA 2 (MRSA; [9]): 128 µg/mL; MIC (μg/ml) at 24 hours, P. aeruginosa (Pseudomonas aeruginosa; [10]): >128 µg/mL
N=C(NN=Cc1ccc(Cl)cc1N)NN=Cc1ccc(Cl)cc1N [NCL 169] | – | – | – | – | – | – | – | – | – | MIC (μg/ml) at 24 hours, VRE 1 (VRE; [5]): 32 µg/mL (≈ 87.9 µM); MIC (μg/ml) at 24 hours, VRE 2 (VRE; [6]): 32 µg/mL (≈ 87.9 µM); MIC (μg/ml) at 24 hours, E. coli (Escherichia coli; [7]): >128 µg/mL; MIC (μg/ml) at 24 hours, MRSA 1 (MRSA; [8]): 32 µg/mL (≈ 87.9 µM); MIC (μg/ml) at 24 hours, MRSA 2 (MRSA; [9]): 64 µg/mL (≈ 176 µM); MIC (μg/ml) at 24 hours, P. aeruginosa (Pseudomonas aeruginosa; [10]): >128 µg/mL
O=C(NN=Cc1cccc(C(F)(F)F)c1)NN=Cc1cccc(C(F)(F)F)c1 [NCL011] | >128 µg/mL | 32 µg/mL (≈ 79.5 µM) | >128 µg/mL | >128 µg/mL | >128 µg/mL | >128 µg/mL | – | – | – | activity against VRE among analogues (VRE): greatest activity

Continued, in another order:

MIC (μg/ml) at 24 hours, VRE 1 (VRE; [1]) | MIC (μg/ml) at 24 hours, VRE 2 (VRE; [2]) | MIC (μg/ml) at 24 hours, E. coli (Escherichia coli; 1st and 2nd replicate rows) | MIC (μg/ml) at 24 hours, MRSA 1 (MRSA; [3]) | MIC (μg/ml) at 24 hours, MRSA 2 (MRSA; [4]) | MIC (μg/ml) at 24 hours, P. aeruginosa (Pseudomonas aeruginosa; 1st and 2nd replicate rows) | MIC (μg/ml) at 24 hours, VRE 1 (VRE; VRE 1, 24 hours) | MIC (μg/ml) at 24 hours, MRSA 2 (MRSA; MRSA 2, 24 hours) | MIC (μg/ml) at 24 hours, P. aeruginosa (Pseudomonas aeruginosa; P. aeruginosa) | Compound | further results
>128 µg/mL | 32 µg/mL (≈ 91.1 µM) | >128 µg/mL | >128 µg/mL | >128 µg/mL | >128 µg/mL | – | – | – | S=C(N/N=C/c1cccc(Cl)c1)N/N=C/c1cccc(Cl)c1 [NCL070] | activity against VRE among analogues (VRE): greatest activity
– | – | – | – | – | – | >128 µg/mL | >128 µg/mL | >128 µg/mL | CC(C)(C)c1ccc(/C=N/Nc2cc(N/N=C/c3ccc(C(C)(C)C)cc3)nc(N)n2)cc1.Cl.Cl [NCL198] | MIC (μg/ml) at 24 hours, VRE 2 (VRE; VRE 2, 24 hours): >128 µg/mL; MIC (μg/ml) at 24 hours, E. coli (Escherichia coli; E. coli): >128 µg/mL; MIC (μg/ml) at 24 hours, MRSA 1 (MRSA; MRSA 1, 24 hours): >128 µg/mL
– | – | – | – | – | – | >128 µg/mL | >128 µg/mL | >128 µg/mL | Nc1nc(NNC(=O)c2ccccc2)cc(NNC(=O)c2ccccc2)n1 [NCL194] | MIC (μg/ml) at 24 hours, VRE 2 (VRE; VRE 2, 24 hours): >128 µg/mL; MIC (μg/ml) at 24 hours, E. coli (Escherichia coli; E. coli): >128 µg/mL; MIC (μg/ml) at 24 hours, MRSA 1 (MRSA; MRSA 1, 24 hours): >128 µg/mL
– | – | – | – | – | – | >128 µg/mL | >128 µg/mL | >128 µg/mL | N=C(N/N=C/c1ccc(Cl)cc1)N(/N=C/c1ccc(Cl)cc1)C(=O)NCc1ccccc1 [NCL227] | MIC (μg/ml) at 24 hours, VRE 2 (VRE; VRE 2, 24 hours): >128 µg/mL; MIC (μg/ml) at 24 hours, E. coli (Escherichia coli; E. coli): >128 µg/mL; MIC (μg/ml) at 24 hours, MRSA 1 (MRSA; MRSA 1, 24 hours): >128 µg/mL
– | – | – | – | – | – | 64 µg/mL (≈ 176 µM) | 32 µg/mL (≈ 88.1 µM) | 128 µg/mL (≈ 352 µM) | Nc1nc(N/N=C/c2ccc(O)cc2)cc(N/N=C/c2ccc(O)cc2)n1 [NCL196, 4,4′-((1E,1′E)-((2-aminopyrimidine-4,6-diyl)bis(hydrazin-2-yl-1ylidene))bis(methanylylidene))diphenol] | MIC (VRE; read-out: MIC (μg/ml) at 24 hours VRE 1, VRE 1, 24 hours): 32 µg/mL (≈ 88.1 µM); MIC (VRE; read-out: MIC (μg/ml) at 24 hours VRE 2, VRE 2, 24 hours): 64 µg/mL (≈ 176 µM); MIC (Escherichia coli; Escherichia coli, read-out: MIC (μg/ml) at 24 hours E. coli, E. coli): 64 µg/mL (≈ 176 µM); MIC (MRSA; read-out: MIC (μg/ml) at 24 hours MRSA 1, MRSA 1, 24 hours): 32 µg/mL (≈ 88.1 µM); MIC (MRSA; read-out: MIC (μg/ml) at 24 hours MRSA 2, MRSA 2, 24 hours): 64 µg/mL (≈ 176 µM); MIC (Pseudomonas aeruginosa; Pseudomonas aeruginosa, 24 h, read-out: MIC (μg/ml) at 24 hours P. aeruginosa, P. aeruginosa, 24 hours): 64 µg/mL (≈ 176 µM)
– | – | – | – | – | – | >128 µg/mL | >128 µg/mL | >128 µg/mL | CC(=O)Nc1ccc(/C=N/Nc2cc(N/N=C/c3ccc(NC(C)=O)cc3)nc(N)n2)cc1 [NCL223] | MIC (μg/ml) at 24 hours, VRE 2 (VRE; VRE 2, 24 hours): >128 µg/mL; MIC (μg/ml) at 24 hours, E. coli (Escherichia coli; E. coli): >128 µg/mL; MIC (μg/ml) at 24 hours, MRSA 1 (MRSA; MRSA 1, 24 hours): >128 µg/mL
